Columns and labels:
[1] = tested on: AR protein; assay: AR protein degradation in MDA-MB-453 cells, Western blotting; format: cell-based; parameters: key to AR protein degradation MDA-MB-453 10 nM: A: >90% degradation (24 hr treatment); B: >50% degradation but <90% (24 hr treatment); C: >10% degradation but <50% (24 hr treatment); D: No significant degradation (24 hr treatment); conditions: 24 hr treatment
Procedure: (§1) The appropriate cell line, e.g., prostate cancer LNCaP, Vcap, or 22RV1 cell line, was treated with Compounds of the Disclosure as indicated. The treated cells were lysed with RIPA buffer. The AR level in the cell lysates was examined by western blotting and a specific AR antibody (ab194196, Abcam, Cambridge, MA 02139) with concentration of 1:20,000. GAPDH was used as a loading control.
(§2) Bands were quantified with ImageJ software. The relative numbers of each band obtained from normalization with its corresponding GAPDH level were compared with Prism 8 software. The DC50 values were produced from Prism 8, and the DC90 values were calculated with an equation=Bottom + (Top-Bottom)/(1+10^((LogEC50-X)*HillSlope) based on DC50 and Hillslope values.
(§3) The amount of AR protein degradation in VCap and MDA-MB-453 cells caused by representative Compounds of the Disclosure at the concentrations indicated is presented in Table 4, FIG. 1, and FIG. 2.

[2] = target: T1, AR protein (Homo sapiens, UniProt P10275); assay: AR protein degradation in VCaP cells, Western blotting; format: cell-based; parameters: key to AR protein degradation VCap 10 nM / AR protein degradation VCap 100 nM: A: >90% degradation (24 hr treatment); B: >50% degradation but <90% (24 hr treatment); C: >10% degradation but <50% (24 hr treatment); D: No significant degradation (24 hr treatment); conditions: 24 hr treatment; for percent AR protein degradation at 0.01 µM / AR protein degradation VCap 10 nM: 10 nM; for percent AR protein degradation at 0.1 µM / AR protein degradation VCap 100 nM: 100 nM
T1 construct: endogenous in cells; host or cells: VCaP
T1 sequence (P10275 1-920): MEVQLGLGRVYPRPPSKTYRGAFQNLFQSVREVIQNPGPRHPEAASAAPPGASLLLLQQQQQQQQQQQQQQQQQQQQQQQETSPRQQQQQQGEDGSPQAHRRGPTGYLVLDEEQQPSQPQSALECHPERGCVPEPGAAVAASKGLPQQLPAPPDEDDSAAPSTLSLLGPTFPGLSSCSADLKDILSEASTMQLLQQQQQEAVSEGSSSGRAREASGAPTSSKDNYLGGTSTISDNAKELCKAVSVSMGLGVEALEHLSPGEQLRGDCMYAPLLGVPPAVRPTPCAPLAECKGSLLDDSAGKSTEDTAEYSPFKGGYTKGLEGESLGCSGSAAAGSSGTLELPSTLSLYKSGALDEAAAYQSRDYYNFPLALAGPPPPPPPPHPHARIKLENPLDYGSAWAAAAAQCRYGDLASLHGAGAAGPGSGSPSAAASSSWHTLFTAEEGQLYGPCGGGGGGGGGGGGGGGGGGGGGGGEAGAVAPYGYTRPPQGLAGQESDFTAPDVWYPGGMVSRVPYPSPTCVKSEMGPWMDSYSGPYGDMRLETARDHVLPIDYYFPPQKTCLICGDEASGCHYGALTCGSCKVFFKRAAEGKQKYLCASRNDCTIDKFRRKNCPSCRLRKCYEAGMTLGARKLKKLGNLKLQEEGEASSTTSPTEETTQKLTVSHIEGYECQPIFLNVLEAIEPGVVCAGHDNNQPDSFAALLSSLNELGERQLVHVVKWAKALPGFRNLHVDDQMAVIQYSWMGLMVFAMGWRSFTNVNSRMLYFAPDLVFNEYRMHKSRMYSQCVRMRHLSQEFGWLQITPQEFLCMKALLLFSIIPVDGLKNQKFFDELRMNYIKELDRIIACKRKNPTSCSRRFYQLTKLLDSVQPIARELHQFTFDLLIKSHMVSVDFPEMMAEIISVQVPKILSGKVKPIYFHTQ
Procedure: as §1, §2, §3

For `CC1(C)[C@H](Oc2ccc(C#N)c(Cl)c2)C(C)(C)[C@H]1N1Cc2cc(N3CCN(CC(=O)N4CCc5cc6c(cc5C4)C(=O)N(C4CCC(=O)NC4=O)C6=O)CC3)ccc2C1=O` (stereo partly drawn) [compound 1], the “AR protein degradation MDA-MB-453 10 nM” value [1] was “D” and the “AR protein degradation MDA-MB-453 100 nM” value [1] was “C (>10% degradation but <50% (24 hr treatment))”.

For `CC1(C)[C@H](Oc2ccc(C#N)c(Cl)c2)C(C)(C)[C@H]1N1Cc2cc(N3CCN(CC(=O)N4Cc5cc6c(cc5C4)C(=O)N(C4CCC(=O)NC4=O)C6=O)CC3)ccc2C1=O` (stereo partly drawn) [compound 2], the “AR protein degradation MDA-MB-453 10 nM” value [1] was “D” and the “AR protein degradation MDA-MB-453 100 nM” value [1] was “C (>10% degradation but <50% (24 hr treatment))”.

For `N#Cc1ccc(O[C@H]2CC[C@H](N3Cc4cc(N5CCN(CC(=O)N6CCc7cc8c(cc7C6)C(=O)N(C6CCC(=O)NC6=O)C8=O)CC5)ccc4C3=O)CC2)cc1Cl` (stereo partly drawn) [compound 3], the “AR protein degradation MDA-MB-453 10 nM” value [1] was “D” and the “AR protein degradation MDA-MB-453 100 nM” value [1] was “C (>10% degradation but <50% (24 hr treatment))”.

`C[C@H]1CCN(c2ccc(C(=O)N3CCC(CN4Cc5cc6c(cc5C4)C(=O)N(C4CCC(=O)NC4=O)C6=O)CC3)cc2)CCN1c1ccc(C#N)c(Cl)c1` (stereo partly drawn) [compound 120] was tested, and the percent AR protein degradation at 0.01 µM [2] was 50 to 90% and the percent AR protein degradation at 0.1 µM [2] was 50 to 90%.

In the case of `C[C@@H]1CCN(C(=O)c2ccc(N3CCC(CN4Cc5cc6c(cc5C4)C(=O)N(C4CCC(=O)NC4=O)C6=O)CC3)cc2)C[C@H]1Oc1ccc(C#N)c(Cl)c1` (stereo partly drawn) [compound 121], the “AR protein degradation VCap 10 nM” value [2] is reported as “D” and the “AR protein degradation VCap 100 nM” value [2] is reported as “D”.

In the case of `C[C@@H]1CN(C(=O)c2ccc(N3CCC(CN4Cc5cc6c(cc5C4)C(=O)N(C4CCC(=O)NC4=O)C6=O)CC3)cc2)C[C@H]1Oc1ccc(C#N)c(Cl)c1` (stereo partly drawn) [compound 122], the “AR protein degradation VCap 10 nM” value [2] is reported as “D” and the “AR protein degradation VCap 100 nM” value [2] is reported as “D”.

With `N#Cc1ccc(OC2CC3(CC(NC(=O)c4ccc(N5CCC(CN6Cc7cc8c(cc7C6)C(=O)N(C6CCC(=O)NC6=O)C8=O)CC5)cc4)C3)C2)cc1Cl` (stereo not drawn) [compound 124] the “AR protein degradation VCap 10 nM” value [2] was “D” and the percent AR protein degradation at 0.1 µM [2] was 50 to 90%.

For `N#Cc1ccc(OC2CCC3(CC2)CC(NC(=O)c2ccc(N4CCC(CN5Cc6cc7c(cc6C5)C(=O)N(C5CCC(=O)NC5=O)C7=O)CC4)cc2)C3)cc1Cl` (stereo not drawn) [compound 125], the “AR protein degradation VCap 10 nM” value [2] was “D” and the percent AR protein degradation at 0.1 µM [2] was 10 to 50%.

`N#Cc1ccc(OC2CC3(CCC(NC(=O)c4ccc(N5CCC(CN6Cc7cc8c(cc7C6)C(=O)N(C6CCC(=O)NC6=O)C8=O)CC5)cc4)CC3)C2)cc1Cl` (stereo not drawn) [compound 126] was tested, and the “AR protein degradation VCap 10 nM” value [2] was “D” and the percent AR protein degradation at 0.1 µM [2] was 10 to 50%.

`N#Cc1ccc(OC2CCN(C(=O)Oc3ccc(C(=O)N4CCC(CN5Cc6cc7c(cc6C5)C(=O)N(C5CCC(=O)NC5=O)C7=O)CC4)cc3)CC2)cc1Cl` (stereo not drawn) [compound 131] was tested, and the “AR protein degradation VCap 10 nM” value [2] was “D” and the percent AR protein degradation at 0.1 µM [2] was 10 to 50%.

For `N#Cc1ccc(OC2CCN(C(=O)Nc3ccc(C(=O)N4CCC(CN5Cc6cc7c(cc6C5)C(=O)N(C5CCC(=O)NC5=O)C7=O)CC4)cc3)CC2)cc1Cl` (stereo not drawn) [compound 132], the “AR protein degradation VCap 10 nM” value [2] was “D” and the “AR protein degradation VCap 100 nM” value [2] was “D”.

For `N#Cc1ccc(O[C@H]2CC[C@H](N3Cc4cc(C(=O)N5CCC(N6Cc7cc8c(cc7C6)C(=O)N(C6CCC(=O)NC6=O)C8=O)CC5)ccc4C3=O)CC2)cc1Cl` (stereo partly drawn) [compound 173], the percent AR protein degradation at 0.01 µM [2] was 10 to 50% and the percent AR protein degradation at 0.1 µM [2] was > 90%.

Source: patent publication US20230357249A1, “ANDROGEN RECEPTOR PROTEIN DEGRADERS WITH A TRICYCLIC CEREBLON LIGAND” (THE REGENTS OF THE UNIVERSITY OF MICHIGAN, priority 2020, published 2023)
